EP2742937A1, “Compositions for use in the treatment of bacterial infections” (LIONEX Diagnostics and Therapeutics GmbH, priority 2012, dated 2014)
Values after ≈ are worked out from the molar mass of the structure shown. Read-outs that look alike come from different tables or passages of the source.

What was measured:
L929 cell line = experiment: MTT cell proliferation assay (in vitro toxicity); assay type: cell-based, mouse; conditions: for IC50: Mus musculus, L929, 120 h
M. bovis BCG = experiment: microbe, parasite or virus in culture; assay type: cell-based, Mycobacterium bovis BCG; conditions: for MIC With medium containing 50 % FBS / MIC in 100% medium: M. bovis BCG, resazurin assay; for MIC With medium containing 50 % FBS: 50 % fetal bovine serum; for MIC in 100% medium: no FBS; for MIC: Mycobacterium tuberculosis variant bovis BCG, BCG, read-out: MIC With medium containing 50 % FBS
M. tuberculosis H37Rv = experiment: Resazurin microtiter assay (REMA), MIC; assay type: cell-based; conditions: for MIC: Mycobacterium tuberculosis; for synergistic effect with ethambutol: in words
[1] = in words; Haebich & Von Nussbaum, 2009; cited from earlier work
[2] = MTT assay after 5 days, individual substances, read-out: In vitro toxicity with L929 cell line IC50
[3] = H37RV, REMA, individual substance, read-out: MIC (µg/ml) against M. tuberculosis H37Rv Individual substance
[4] = MTT assay after 5 days, individual substances
[5] = H37RV, read-out: MIC (µg/ml) against M. tuberculosis H37Rv With medium containing ethambutol

Compound | IC50 (L929 cell line; [2]) [µg/mL] | MIC With medium containing 50 % FBS (M. bovis BCG) | MIC in 100% medium (M. bovis BCG) | MIC (M. bovis BCG) [µg/mL] | MIC (M. tuberculosis H37Rv; [3]) [µg/mL] | In vitro toxicity with L929 cell line IC50 (µg/ml) (L929 cell line; [4]) | IC50 (L929 cell line; read-out: In vitro toxicity with L929 cell line IC50 (µg/ml)) [µg/mL] | FIC (M. tuberculosis H37Rv; H37RV) | MIC (µg/ml) against M. tuberculosis H37Rv Individual substance (M. tuberculosis H37Rv; H37RV) [µg/mL] | MIC (M. tuberculosis H37Rv; H37RV, read-out: MIC (µg/ml) against M. tuberculosis H37Rv Individual substance) [µg/mL] | MIC (M. tuberculosis H37Rv; [5]) [µg/mL] | synergistic effect with ethambutol (M. tuberculosis H37Rv) | serum protein binding [1] | MIC (µg/ml) against M. tuberculosis H37Rv Individual substance (M. tuberculosis H37Rv; REMA, individual substance) | MIC (µg/ml) against M. tuberculosis H37Rv Individual substance (M. tuberculosis H37Rv; REMA, individual substance, listed as ripostatin) [µg/mL] | In vitro toxicity with L929 cell line IC50 (L929 cell line; [4]) [µg/mL] | MIC (µg/ml) against M. tuberculosis H37Rv With medium containing ethambutol (M. tuberculosis H37Rv; REMA, Ethambutol at Conc. 0.3 µg/ml in medium) [µg/mL]
CC[C@@H](CO)NCCN[C@@H](CC)CO [Ethambutol] | > 100 | not affected by the addition of the FBS | 2.5 | 2.5 (≈ 12.2 µM) | 1.6 (≈ 7.83 µM) | – | – | – | – | – | – | – | – | – | – | – | –
CCCC(C)=CC=C(C)C(=O)c1c(O)cc(C(C)CCC=CNC(=O)OC)oc1=O (stereo not drawn) [Myxopyronin A] | – | did not inhibit the growth of M. bovis BCG | 6.25 | > 25 | – | did not inhibit L929 cell proliferation at all tested concentrations | > 100 | 0.64 | 6.25 (≈ 15 µM) | 6.25 (≈ 15 µM) | 3.12 (≈ 7.48 µM) | synergistic effect | high serum protein binding | – | – | – | –
C/C(=C\Cc1ccccc1)CCC(=O)C[C@H]1C[C@H](O)C/C(C)=C/C/C=C/C/C(CC(=O)O)=C\C(=O)O1 [Ripostatin] | > 100 | – | – | – | > 25 | – | – | – | – | – | > 25 | did not show synergism with ethambutol | – | no inhibition up to 25 µg/ml | > 25 | – | –
C/C=C/C/C=C(\C)C(O)CC/C(C)=C/C=C(\C)C(=O)c1c(O)cc([C@H](C)CC/C=C/NC(=O)OC)oc1=O (stereo partly drawn) [Corallopyronin] | – | – | – | – | – | – | – | – | – | – | – | did not show synergism with ethambutol | high serum protein binding | 12.5 µg/mL (≈ 23.7 µM) | – | 25 | 12.5 (≈ 23.7 µM)
